Data from PubChem BioAssay AID2060625 (Molecular Pharmacology Branch, DTP, NCI, 2025).

Test system: 186277-243-T-J2-PDC spheroids with HUVEC/MSC, viability
Assay: Anticancer human tumor 186277-243-T-J2-PDC patient-derived colon adenocarcinoma cell line growth inhibition [CLK]
Conditions: for IC50: curve of first compound; for viability, T/C: stronger effect = lower value; active = viability on the fitted dose curve at most 10% of control; inactive = the rest
Outline: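 Multi-cell-type spheroids combined patient-derived tumor cells with HUVEC endothelial cells and human mesenchymal stem cells. Paired agents were dosed in half-log steps down from about clinical Cmax, or from 10 microM where Cmax was unknown.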

[1] = second compound 0.0316 µM, first compound 0.00316 µM
[2] = second compound 0.0316 µM, first compound 0.01 µM
[3] = second compound 0.0316 µM, first compound 0.0316 µM
[4] = second compound 0.0316 µM, first compound 0.1 µM
[5] = second compound 0.0316 µM, first compound 0.316 µM
[6] = second compound 0.0316 µM, first compound 1 µM
[7] = second compound 0.1 µM, first compound 0.00316 µM
[8] = second compound 0.1 µM, first compound 0.01 µM
[9] = second compound 0.1 µM, first compound 0.0316 µM
[10] = second compound 0.1 µM, first compound 0.1 µM
[11] = second compound 0.1 µM, first compound 0.316 µM
[12] = second compound 0.1 µM, first compound 1 µM
[13] = second compound 0.316 µM, first compound 0.00316 µM
[14] = second compound 0.316 µM, first compound 0.01 µM
[15] = second compound 0.316 µM, first compound 0.0316 µM
[16] = second compound 0.316 µM, first compound 0.1 µM
[17] = second compound 0.316 µM, first compound 0.316 µM
[18] = second compound 0.316 µM, first compound 1 µM
[19] = second compound 1 µM, first compound 0.00316 µM
[20] = second compound 1 µM, first compound 0.01 µM
[21] = second compound 1 µM, first compound 0.0316 µM
[22] = second compound 1 µM, first compound 0.1 µM
[23] = second compound 1 µM, first compound 0.316 µM
[24] = second compound 1 µM, first compound 1 µM
[25] = second compound 3.16 µM, first compound 0.00316 µM
[26] = second compound 3.16 µM, first compound 0.01 µM
[27] = second compound 3.16 µM, first compound 0.0316 µM
[28] = second compound 3.16 µM, first compound 0.1 µM
[29] = second compound 3.16 µM, first compound 0.316 µM
[30] = second compound 3.16 µM, first compound 1 µM
[31] = second compound 10 µM, first compound 0.00316 µM
[32] = second compound 10 µM, first compound 0.01 µM
[33] = second compound 10 µM, first compound 0.0316 µM
[34] = second compound 10 µM, first compound 0.1 µM
[35] = second compound 10 µM, first compound 0.316 µM
[36] = second compound 10 µM, first compound 1 µM
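Note: compound exposure lasted seven days before readout.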
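Throughout, for viability, T/C: 100% = DMSO vehicle control wells.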

CCN1CCN(Cc2ccc(Nc3ncc(F)c(-c4cc(F)c5nc(C)n(C(C)C)c5c4)n3)nc2)CC1 + CNC(=O)c1ccc(Nc2nc(OC3CCCC3)c3c(-c4ccc5nc(C)oc5c4)c[nH]c3n2)c(OC)c1
> 1000 nM: IC50 (second compound 0.0316 µM) | IC50 (second compound 0.1 µM) | IC50 (second compound 0.316 µM)
inactive: viability, T/C [1] 123% | viability, T/C [2] 101% | viability, T/C [3] 148% | viability, T/C [4] 116% | viability, T/C [5] 125% | viability, T/C [6] 117% | viability, T/C [7] 92.7% | viability, T/C [8] 98.5% | viability, T/C [9] 104% | viability, T/C [10] 103% | viability, T/C [11] 114% | viability, T/C [12] 104% | viability, T/C [13] 59% | viability, T/C [14] 64.3% | viability, T/C [15] 71.6% | viability, T/C [16] 78.8% | viability, T/C [17] 76.5% | viability, T/C [18] 74.8% | viability, T/C [19] 41.8% | viability, T/C [20] 47.8% | viability, T/C [21] 48.3% | viability, T/C [22] 60.5% | viability, T/C [23] 58.1% | viability, T/C [24] 61.5% | viability, T/C [25] 39.1% | viability, T/C [26] 39.2% | viability, T/C [27] 45.2% | viability, T/C [28] 47% | viability, T/C [29] 51.9% | viability, T/C [30] 59.6% | viability, T/C [31] 41% | viability, T/C [32] 39.9% | viability, T/C [33] 46.5% | viability, T/C [34] 43.4% | viability, T/C [35] 47.8% | viability, T/C [36] 46.9%
< 3.16 nM: IC50 (second compound 1 µM) | IC50 (second compound 3.16 µM) | IC50 (second compound 10 µM)

COc1c(OCCCN2CCOCC2)ccc2c3n(c(=NC(=O)c4cnc(N)nc4)nc12)CCN3 + CNC(=O)c1ccc(Nc2nc(OC3CCCC3)c3c(-c4ccc5nc(C)oc5c4)c[nH]c3n2)c(OC)c1
inactive: viability, T/C [1] 86.7% | viability, T/C [2] 93.3% | viability, T/C [3] 47.4% | viability, T/C [4] 20% | viability, T/C [5] 13.3% | viability, T/C [6] 7.3% | viability, T/C [7] 49.4% | viability, T/C [8] 42.1% | viability, T/C [9] 23.9% | viability, T/C [10] 9.52% | viability, T/C [13] 29.3% | viability, T/C [14] 22.8% | viability, T/C [15] 12.3% | viability, T/C [19] 17.2% | viability, T/C [20] 14.2% | viability, T/C [25] 17% | viability, T/C [26] 15% | viability, T/C [31] 21% | viability, T/C [32] 14.5%
29.9 nM: IC50 (second compound 0.0316 µM)
< 3.16 nM: IC50 (second compound 0.1 µM) | IC50 (second compound 0.316 µM) | IC50 (second compound 1 µM) | IC50 (second compound 3.16 µM) | IC50 (second compound 10 µM)
active: viability, T/C [11] 9.27% | viability, T/C [12] 5.48% | viability, T/C [16] 6.69% | viability, T/C [17] 6.54% | viability, T/C [18] 3.73% | viability, T/C [21] 9.1% | viability, T/C [22] 6.05% | viability, T/C [23] 5.94% | viability, T/C [24] 2.82% | viability, T/C [27] 8.99% | viability, T/C [28] 4.81% | viability, T/C [29] 4.85% | viability, T/C [30] 1.73% | viability, T/C [33] 6.54% | viability, T/C [34] 6.2% | viability, T/C [35] 3.21% | viability, T/C [36] 2.06%
